In US20120022054A1, “NOVEL SUBSTITUTED ARYL DERIVATIVES, THEIR PROCESS OF PREPARATION AND THEIR THERAPEUTICAL USES AS ANTI-HIV AGENTS” (priority 2008, published 2012):
Read-outs that look alike come from different tables or passages of the source.

System: NL4-3 strain of HIV-1
Experiment: Multiple cycle infection assay of CAp24 antigen production
Format: cell-based
Conditions: Human immunodeficiency virus 1, NL43, SUP-T1, 96 h, multiple cycle infection with NL4-3 virus, SupT1, MT4 or PBMC, MOI 0.01, day 4 and day −6 post-infection, read-out: EC50 for antiviral activity (50% inhibition of CA p24 production)

Question: How did the EC50 (threshold below 500 nM) turn out when `COc1ccc(F)cc1CN(C)C(=O)CCCn1cc(-c2ccc(F)cc2C)cn1` [Example 175, N-(5-Fluoro-2-methoxybenzyl)-4-[4-(4-fluoro-2-methylphenyl)pyrazol-1-yl]-N-methylbutanamide] was run?
Answer: Its EC50 is less than 0.5 µM.

Question: What about the EC50 (threshold below 5 μM) of the same molecule?
Answer: The EC50 was less than 5 µM.

Question: With `COc1ccc(F)cc1CN(C)C(=O)CCCn1ccc2cc(Cl)ccc21` [Example 107, 4-(5-chloro-1H-indol-1-yl)-N-(5-fluoro-2-methoxybenzyl)-N-methylbutanamide] as the molecule, how does the EC50 (threshold below 500 nM) read?
Answer: The EC50 was less than 0.5 µM.

Question: What about the EC50 (threshold below 5 μM) of the same molecule?
Answer: Its EC50 is less than 5 µM.

Question: How did the EC50 (threshold below 500 nM) turn out when `COc1ccc(-c2cnc(CCCC(=O)N(C)Cc3cc(F)ccc3OC)o2)cc1` [Example 180, N-(5-Fluoro-2-methoxybenzyl)-4-[5-(4-methoxyphenyl)oxazol-2-yl]-N-methylbutanamide] was run?
Answer: Its EC50 is less than 0.5 µM.

Question: And the EC50 (threshold below 5 μM)?
Answer: Its EC50 is less than 5 µM.

Question: What does the source list for `COc1ccc(SCCCC(=O)N(C)c2nccc3ccccc23)cc1` [Example 132, N-isoquinolin-1-yl-4-[(4-methoxyphenyl)thio]-N-methylbutanamide]?
Answer: EC50 (threshold below 500 nM): < 0.5 µM; EC50 (threshold below 5 μM): < 5 µM

Question: What does the source list for `COc1ccc([S+]([O-])CCCC(=O)N(C)Cc2cc(F)ccc2OC(C)C)cc1` (stereo not drawn) [Example 118, N-(5-fluoro-2-isopropoxybenzyl)-4-[(4-methoxyphenyl)sulfinyl]-N-methylbutanamide]?
Answer: EC50 (threshold below 500 nM): < 0.5 µM; EC50 (threshold below 5 μM): < 5 µM

Question: `CN(C(=O)CCCSc1ccc(F)cc1)c1nccc2ccccc12` [Example 128, 4-[(4-fluorophenyl)thio]-N-isoquinolin-1-yl-N-methylbutanamide] was tested. Which EC50 (threshold below 500 nM) did it give?
Answer: The EC50 was less than 0.5 µM.

Question: What about the EC50 (threshold below 5 μM) of the same molecule?
Answer: Its EC50 is less than 5 µM.

Question: Which EC50 (threshold below 500 nM) does the source give for `COc1ccc([S+]([O-])CCCC(=O)N(C)Cc2cc(Cl)ccc2OC)cc1` (stereo not drawn) [Example 116, N-(5-chloro-2-methoxybenzyl)-4-[(4-methoxyphenyl)sulfinyl]-N-methylbutanamide] here?
Answer: Its EC50 is less than 0.5 µM.

Question: What about the EC50 (threshold below 5 μM) of the same molecule?
Answer: The EC50 was less than 5 µM.

Question: `COc1ccc(F)cc1CN(C)C(=O)CCCn1cc(-c2ccc(O)cc2)cn1` [Example 176, N-(5-Fluoro-2-methoxybenzyl)-4-[4-(4-hydroxyphenyl)pyrazol-1-yl]-N-methylbutanamide] was tested. Which EC50 (threshold below 500 nM) did it give?
Answer: The EC50 was less than 0.5 µM.

Question: What about the EC50 (threshold below 5 μM) of the same molecule?
Answer: The EC50 was less than 5 µM.

Question: For `CN(Cc1ccccc1N1CCNCC1)C(=O)CCCSc1ccc(O)cc1` [Example 162, 4-[(4-Hydroxyphenyl)thio]-N-methyl-N-(2-piperazin-1-ylbenzyl)butanamide], which EC50 (threshold below 500 nM) is on record?
Answer: Its EC50 is less than 0.5 µM.

Question: And the EC50 (threshold below 5 μM)?
Answer: Its EC50 is less than 5 µM.

Question: How did the EC50 (threshold below 500 nM) turn out when `CN(C(=O)CCCSc1ccc(F)cc1)c1cccc2cccnc12` [Example 130, 4-[(4-fluorophenyl)thio]-N-methyl-N-quinolin-8-ylbutanamide] was run?
Answer: Its EC50 is less than 0.5 µM.

Question: What about the EC50 (threshold below 5 μM) of the same molecule?
Answer: The EC50 was less than 5 µM.

Question: With `COc1ccc(F)cc1CN(C)C(=O)CCCn1ccc2cc(Br)ccc21` [Example 108, 4-(5-bromo-1H-indol-1-yl)-N-(5-fluoro-2-methoxybenzyl)-N-methylbutanamide] as the molecule, how does the EC50 (threshold below 500 nM) read?
Answer: Its EC50 is less than 0.5 µM.

Question: What about the EC50 (threshold below 5 μM) of the same molecule?
Answer: The EC50 was less than 5 µM.

Question: `COc1ccc(F)cc1CN(C)C(=O)CCC[S+]([O-])c1ccc(O)cc1` (stereo not drawn) [Example 103, N-(5-fluoro-2-methoxybenzyl)-4-[(4-hydroxyphenyl)sulfinyl]-N-methylbutanamide] was tested. Which EC50 (threshold below 500 nM) did it give?
Answer: The EC50 was less than 0.5 µM.

Question: And the EC50 (threshold below 5 μM)?
Answer: The EC50 was less than 5 µM.

Question: What does the source list for `COc1ccc(Cl)cc1CN(C)C(=O)CCCSc1ccc(O)cc1` [Example 70, N-(5-Chloro-2-methoxybenzyl)-4-[(4-hydroxyphenyl)thio]-N-methylbutanamide]?
Answer: EC50 (threshold below 500 nM): < 0.5 µM; EC50 (threshold below 5 μM): < 5 µM

Question: With `COc1ccc(-c2cnn(CCCC(=O)N(C)Cc3cc(F)ccc3OC)c2)cc1` [Example 174, N-(5-Fluoro-2-methoxybenzyl)-4-[4-(4-methoxyphenyl)pyrazol-1-yl]-N-methylbutanamide] as the molecule, how does the EC50 (threshold below 500 nM) read?
Answer: The EC50 was less than 0.5 µM.

Question: And the EC50 (threshold below 5 μM)?
Answer: The EC50 was less than 5 µM.

Question: For `COc1ccc(C(=O)CCCC(=O)N(C)Cc2cc(Cl)ccc2OC)cc1` [Example 125, N-(5-chloro-2-methoxybenzyl)-5-(4-methoxyphenyl)-N-methyl-5-oxopentanamide], which EC50 (threshold below 500 nM) is on record?
Answer: The EC50 was less than 0.5 µM.

Question: And the EC50 (threshold below 5 μM)?
Answer: Its EC50 is less than 5 µM.

Question: With `COc1ccc(F)cc1CN(C)C(=O)CCCSc1ccc(F)cc1` [Example 84, N-(5-Fluoro-2-methoxybenzyl)-4-[(4-fluorophenyl)thio]-N-methylbutanamide] as the molecule, how does the EC50 (threshold below 500 nM) read?
Answer: Its EC50 is less than 0.5 µM.

Question: What about the EC50 (threshold below 5 μM) of the same molecule?
Answer: The EC50 was less than 5 µM.

Question: Which results are given for `CN(C(=O)CCCSc1ccc(F)cc1)c1cccc2ccccc12` [Example 169, 4-[(4-Fluorophenyl)thio]-N-methyl-N-1-naphthylbutanamide]?
Answer: EC50 (threshold below 500 nM): < 0.5 µM; EC50 (threshold below 5 μM): < 5 µM

Question: Which results are given for `COc1ccc(F)cc1CN(C)C(=O)CCCSc1ccc(O)cc1` [Example 71, N-(5-Fluoro-2-methoxybenzyl)-4-[(4-hydroxyphenyl)thio]-N-methylbutanamide]?
Answer: EC50 (threshold below 500 nM): < 0.5 µM; EC50 (threshold below 5 μM): < 5 µM

Question: How did the EC50 (threshold below 500 nM) turn out when `COc1ccc(F)cc1CN(C)C(=O)CCCn1cc(-c2ccc(F)cc2)c(C)n1` [Example 171, N-(5-Fluoro-2-methoxybenzyl)-4-[4-(4-fluorophenyl)-3-methylpyrazol-1-yl]-N-methylbutanamide] was run?
Answer: The EC50 was less than 0.5 µM.

Question: What about the EC50 (threshold below 5 μM) of the same molecule?
Answer: Its EC50 is less than 5 µM.

Question: For `COc1ccc(F)cc1CN(C)C(=O)CCCn1cc(-c2ccc(C#N)cc2)cn1` [Example 177, N-(5-Fluoro-2-methoxybenzyl)-4-[4-(4-cyanophenyl)pyrazol-1-yl]-N-methylbutanamide], which EC50 (threshold below 500 nM) is on record?
Answer: The EC50 was less than 0.5 µM.

Question: What about the EC50 (threshold below 5 μM) of the same molecule?
Answer: Its EC50 is less than 5 µM.

Question: With `CCOC(=O)c1cc(F)ccc1[S+]([O-])CCCC(=O)N1CCc2ccc(OC)cc21` (stereo not drawn) [Example 191, Ethyl 5-fluoro-2-((4-(6-methoxy-2,3-dihydro-1H-indol-1-yl)-4-oxobutyl)sulfinyl)benzoate] as the molecule, how does the EC50 (threshold below 5 μM) read?
Answer: The EC50 was less than 5 µM.

Question: `COc1ccc(F)cc1CN(C)C(=O)CCCn1cc(-c2ccc(F)cc2)cn1` [Example 170, N-(5-Fluoro-2-methoxybenzyl)-4-[4-(4-fluorophenyl)pyrazol-1-yl]-N-methylbutanamide] was tested. Which EC50 (threshold below 500 nM) did it give?
Answer: The EC50 was less than 0.5 µM.

Question: And the EC50 (threshold below 5 μM)?
Answer: Its EC50 is less than 5 µM.

Question: For `CN(C(=O)CCC[S+]([O-])c1ccc(F)cc1)c1nccc2ccccc12` (stereo not drawn) [Example 129, 4-[(4-fluorophenyl)sulfinyl]-N-isoquinolin-1-yl-N-methylbutanamide], which EC50 (threshold below 500 nM) is on record?
Answer: Its EC50 is less than 0.5 µM.

Question: What about the EC50 (threshold below 5 μM) of the same molecule?
Answer: Its EC50 is less than 5 µM.

Question: Which results are given for `COc1ccc(Cl)cc1CN(C)C(=O)CCCSc1ccc(OC(C)C)cc1` [Example 113, N-(5-chloro-2-methoxybenzyl)-4-[(4-isopropoxyphenyl)thio]-N-methylbutanamide]?
Answer: EC50 (threshold below 500 nM): < 0.5 µM; EC50 (threshold below 5 μM): < 5 µM

Question: With `COc1ccc(F)cc1CN(C)C(=O)CCCSc1ccc(Br)cc1` [Example 145, 4-[(4-Bromophenyl)thio]-N-(5-fluoro-2-methoxybenzyl)-N-methylbutanamide] as the molecule, how does the EC50 (threshold below 500 nM) read?
Answer: The EC50 was less than 0.5 µM.

Question: What about the EC50 (threshold below 5 μM) of the same molecule?
Answer: The EC50 was less than 5 µM.

Question: For `COc1ccc([S+]([O-])CCCC(=O)N(C)Cc2cc(F)ccc2OC)cc1` (stereo not drawn) [Example 104, N-(5-fluoro-2-methoxybenzyl)-4-[(4-methoxyphenyl)sulfinyl]-N-methylbutanamide], which EC50 (threshold below 500 nM) is on record?
Answer: The EC50 was less than 0.5 µM.

Question: What about the EC50 (threshold below 5 μM) of the same molecule?
Answer: The EC50 was less than 5 µM.

Question: Which results are given for `COc1ccc(F)cc1CN(C)C(=O)CCCn1cc(-c2ccncc2)cn1` [Example 178, N-(5-Fluoro-2-methoxybenzyl)-4-(4-pyridin-4-yl-pyrazol-1-yl)-N-methylbutanamide]?
Answer: EC50 (threshold below 500 nM): < 0.5 µM; EC50 (threshold below 5 μM): < 5 µM

Question: With `COc1ccc(F)cc1CN(C)C(=O)CCCn1ccc2cc(F)ccc21` [Example 106, 4-(5-fluoro-1H-indol-1-yl)-N-(5-fluoro-2-methoxybenzyl)-N-methylbutanamide] as the molecule, how does the EC50 (threshold below 500 nM) read?
Answer: Its EC50 is less than 0.5 µM.

Question: And the EC50 (threshold below 5 μM)?
Answer: The EC50 was less than 5 µM.

Question: How did the EC50 (threshold below 500 nM) turn out when `CN(C(=O)CCCn1ccc2cc(F)ccc21)c1cccc2ccccc12` [Example 123, 4-(5-fluoro-1H-indol-1-yl)-N-methyl-N-1-naphthylbutanamide] was run?
Answer: The EC50 was less than 0.5 µM.

Question: And the EC50 (threshold below 5 μM)?
Answer: Its EC50 is less than 5 µM.
